Read-outs that look alike come from different tables or passages of the source.
Columns and labels:
[1] = 1:1 v:v, about 25° C., about 24 hours
Protocol: Each of Samples 1-8 is prepared by and measured according to the following method. Liquid nicotine is added at the target nicotine concentration to a vessel containing an oil phase. The oil phase containing nicotine is mixed with an aqueous phase at a one-to-one volume ratio (v:v) using an orbital shaker at about 100 rotations per minute (rpm) for about 5 minutes to prepare a nicotine oil: aqueous phase mix. The nicotine oil: aqueous phase mix is allowed to sit at room temperature (about 25° C.) for about 24 hours. A concentration of nicotine in each of the oil phase and the nicotine phase is measured using a liquid chromatography method. A partition coefficient, which is a ratio concentrations of a compound (i.e., nicotine) in two immiscible solvents (i.e., an oil phase and an aqueous phase) at equilibrium, is calculated for each sample. The partition coefficient is a comparison of the solubilities of the nicotine in the two liquid phases.
Samples 1-6 include MCT oil (CAS No. 73398-61-5) as an oil phase. Sample 7 includes triacetin oil as an oil phase. Sample 8 includes triolein oil as an oil phase. Sample 1 includes deionized (DI) water as an aqueous phase. Sample 2 includes basified DI water having a pH of 7.4 as an aqueous phase. Sample 3 includes artificial saliva having a pH of 6.8 as an aqueous phase. Artificial saliva simulates mucus conditions. […]

[2] = free base (non-protonated); cited from earlier work

In the case of `CN1CCCC1c1cccnc1` (stereo not drawn) [nicotine, 3-(1-methyl-2-pyrrolidinyl) pyridine], the “partition coefficient (oil phase : aqueous phase)” value ([1]; Samples 1-4: MCT oil vs DI water, basified DI water pH 7.4, artificial saliva pH 6.8, acidified DI water pH 2) is given as “greater than 1”, the “partition coefficient (oil phase : aqueous phase)” value ([1]; Samples 5-8: MCT, triacetin or triolein oil vs 1M acetic acid pH adjuster pH 2) is given as “less than 1” and the pKa value [2] is given as “about 8”.

Source: patent US20220313678A1 (priority 2021, published 2022)
